Key:
Assay in all cases: MIC, antibacterial and synergistic activity
Assay type in all cases: cell-based
E. coli JMI 10768 = conditions: Escherichia coli, JMI10768; E. coli JMI 10768, CTX-M15 (Weak ESBL); substance alone
K. pneumo JMI 2681 = conditions: K. pneumo JMI 2681, Oxa-48 (Cpase); substance alone
E. coli JMI 4080 = conditions: Escherichia coli, JMI4080, E. coli JMI 4080, Tem-10; substance alone
E. coli JMI 10770 = conditions: Escherichia coli, JMI10770; E. coli JMI 10770, CTX-M15 (Hyper ESBL); substance alone
K. pneumo JMI 4109 = conditions: K. pneumo JMI 4109, SHV-1, SHV-12; substance alone
E. coli JMI 2665 = conditions: Escherichia coli, JMI2665, read-out: MIC alone
K. pneumo JMI 2674 = conditions: K. pneumo JMI 2674, CTX-M15 (ESBL); substance alone
E. coli JMI 2692 = conditions: Escherichia coli, JMI2692; E. coli JMI 2692, NDM-1, TEM-1, CTX-M-15; substance alone
Description: (§1) In the Tables 10-12, compounds of the present invention were tested in combination with various antibiotics against metallo β-lactamase producing bacteria.

P. aerug JMI 149 = conditions: P. aerug JMI 149, Bla+++D+; substance alone
Description: as §1

E. coli JMI 2671 = conditions: Escherichia coli, JMI2671, E. coli JMI 2671, VIM-19 (Cpase); substance alone
Description: as §1

K. pneumo JMI 2693 = conditions: K. pneumo JMI 2693, NDM-1 (Cpase); substance alone
Description: as §1

E. coli JMI 10767 = conditions: Escherichia coli, JMI10767; E. coli JMI 10767, Wt; substance alone
Description: as §1

E. cloacae JMI 36 = conditions: Enterobacter cloacae, JMI36; E. cloacae JMI 36, P99; substance alone
Description: as §1

E. coli ATCC 25922 = conditions: Escherichia coli, ATCC25922, E. coli ATCC 25922, enzyme Wt; substance alone
Description: as §1

K. pneumo JMI 2699 = conditions: K. pneumo JMI 2699, VIM-1, CTX-M3; substance alone
Description: as §1

K. pneumo JMI 2697 = conditions: K. pneumo JMI 2697, IMP-4 (Cpase); substance alone
Description: as §1

A. baumanii JMI 2659 = conditions: Acinetobacter baumannii, JMI2659; A. baumanii JMI 2659, Ges-14 (Cpase); substance alone
Description: as §1

K. pneumo JMI 4088 = conditions: K. pneumo JMI 4088, KPC-3 (Cpase); substance alone
E. coli JMI 11103 = conditions: Escherichia coli, JMI11103, E. coli JMI 11103, CTX-M15 (Intermediate ESBL); substance alone
K. pneumo JMI 4106 = conditions: K. pneumo JMI 4106, KPC-3, TEM-1, SHV-12, SHV-141; substance alone
P. aerug JMI 2686 = conditions: P. aerug JMI 2686, KPC-2 (Cpase); substance alone
K. pneumo JMI 2673 = conditions: K. pneumo JMI 2673, CTX-M14 (ESBL); substance alone
E. coli JMI 4103 = conditions: Escherichia coli, JMI4103; E. coli JMI 4103, KPC-2, Tem-1, CMY-Type; substance alone

O=C(NNC(=O)[C@H]1CC[C@H]2CN1C(=O)N2OS(=O)(=O)O)C1CC1 (stereo in doubt) [Ex. 47, (2R,5S)-N′-(cyclopropylcarbonyl)-7-oxo-6-(sulfooxy)-1,6-diazabicyclo[3.2.1]octane-2-carbohydrazide]
MIC (E. coli JMI 10768): 16 µg/mL
MIC (K. pneumo JMI 2681): > 16 µg/mL
MIC (E. coli JMI 4080): 4 µg/mL
MIC (E. coli JMI 10770): 8 µg/mL
MIC (K. pneumo JMI 4109): 2 µg/mL
MIC (E. coli JMI 2665): 2 µg/mL
MIC (K. pneumo JMI 2674): > 16 µg/mL
MIC (E. coli JMI 2692): 8 µg/mL
MIC (P. aerug JMI 149): > 16 µg/mL
MIC (E. coli JMI 2671): 8 µg/mL
MIC (K. pneumo JMI 2693): > 16 µg/mL
MIC (E. coli JMI 10767): 8 µg/mL
MIC (E. cloacae JMI 36): > 16 µg/mL
MIC (E. coli ATCC 25922): > 16 µg/mL
MIC (K. pneumo JMI 2699): 16 µg/mL
MIC (K. pneumo JMI 2697): > 16 µg/mL
MIC (A. baumanii JMI 2659): > 16 µg/mL
MIC (K. pneumo JMI 4088): > 16 µg/mL
MIC (E. coli JMI 11103): 16 µg/mL
MIC (K. pneumo JMI 4106): 16 µg/mL
MIC (P. aerug JMI 2686): > 16 µg/mL
MIC (K. pneumo JMI 2673): > 16 µg/mL
MIC (E. coli JMI 4103): 2 µg/mL
